Assay results taken from ChEMBL document CHEMBL1201862, “PubChem BioAssay data set” (2004).
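Assay format: 96-well plates, 48-hour exposure. GI50: concentration for 50% inhibition of growth.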 Active and inactive are the calls of the source. Cut-off read from the data, not from the text of the source: active = GI50 up to about 1.1 µM and inactive = higher.

Tests used:
Experiment in all cases: DTP human tumour cell line panel, 48 h
786-0 = test system: 786-0
A498 = test system: A498
A549 = test system: A549
ACHN = test system: ACHN
CAKI-1 = test system: CAKI-1
CCRF-CEM = test system: CCRF-CEM
COLO 205 = test system: COLO 205
DU-145 = test system: DU-145
EKVX = test system: EKVX
HCC 2998 = test system: HCC 2998
HCT-116 = test system: HCT-116
HCT-15 = test system: HCT-15
HL-60 = test system: HL-60
HOP-62 = test system: HOP-62
HOP-92 = test system: HOP-92
HT-29 = test system: HT-29
Hs-578T = test system: Hs-578T
IGROV-1 = test system: IGROV-1
K562 = test system: K562
KM12 = test system: KM12
LOX IMVI = test system: LOX IMVI
M14 = test system: M14
MDA-MB-231 = test system: MDA-MB-231
MDA-MB-435 = test system: MDA-MB-435
MDA-N = test system: MDA-N
MOLT-4 = test system: MOLT-4
Malme-3M = test system: Malme-3M
NCI-H226 = test system: NCI-H226
NCI-H23 = test system: NCI-H23
NCI-H460 = test system: NCI-H460
NCI-H522 = test system: NCI-H522
NCI/ADR-RES = test system: NCI/ADR-RES
OVCAR-3 = test system: OVCAR-3
OVCAR-4 = test system: OVCAR-4
OVCAR-5 = test system: OVCAR-5
OVCAR-8 = test system: OVCAR-8
PC-3 = test system: PC-3
RPMI-8226 = test system: RPMI-8226
RXF 393 = test system: RXF 393
SF-268 = test system: SF-268
SF-295 = test system: SF-295
SF-539 = test system: SF-539
SK-MEL-28 = test system: SK-MEL-28
SK-MEL-2 = test system: SK-MEL-2
SK-MEL-5 = test system: SK-MEL-5
SK-OV-3 = test system: SK-OV-3
SN12C = test system: SN12C
SNB-19 = test system: SNB-19
SNB-75 = test system: SNB-75
SR = test system: SR
SW-620 = test system: SW-620
T47D = test system: T47D
TK-10 = test system: TK-10
U-251 = test system: U-251
UACC-257 = test system: UACC-257
UACC-62 = test system: UACC-62
UO-31 = test system: UO-31
MCF7 = test system: MCF7

COCCOC(=O)C1=C(O)c2ccccc2S(=O)(=O)N1C
GI50 (786-0): > 100 µM (inactive) | GI50 (A498): > 100 µM (inactive) | GI50 (A549): > 100 µM (inactive) | GI50 (ACHN): > 100 µM (inactive) | GI50 (CAKI-1): > 100 µM (inactive) | GI50 (CCRF-CEM): > 100 µM (inactive) | GI50 (COLO 205): > 100 µM (inactive) | GI50 (DU-145): > 100 µM (inactive) | GI50 (EKVX): > 100 µM (inactive) | GI50 (HCC 2998): > 100 µM (inactive) | GI50 (HCT-116): > 100 µM (inactive) | GI50 (HCT-15): > 100 µM | GI50 (HL-60): > 100 µM (inactive) | GI50 (HOP-62): > 100 µM (inactive) | GI50 (HOP-92): > 100 µM (inactive) | GI50 (HT-29): > 100 µM (inactive) | GI50 (Hs-578T): > 100 µM (inactive) | GI50 (IGROV-1): > 100 µM (inactive) | GI50 (K562): > 100 µM (inactive) | GI50 (KM12): > 100 µM (inactive) | GI50 (LOX IMVI): > 100 µM (inactive) | GI50 (M14): > 100 µM (inactive) | GI50 (MDA-MB-231): > 100 µM (inactive) | GI50 (MDA-MB-435): > 100 µM (inactive) | GI50 (MDA-N): > 100 µM (inactive) | GI50 (MOLT-4): > 100 µM (inactive) | GI50 (Malme-3M): > 100 µM (inactive) | GI50 (NCI-H226): > 100 µM (inactive) | GI50 (NCI-H23): > 100 µM (inactive) | GI50 (NCI-H460): > 100 µM (inactive) | GI50 (NCI-H522): > 100 µM (inactive) | GI50 (NCI/ADR-RES): > 100 µM (inactive) | GI50 (OVCAR-3): > 100 µM (inactive) | GI50 (OVCAR-4): > 100 µM (inactive) | GI50 (OVCAR-5): > 100 µM (inactive) | GI50 (OVCAR-8): > 100 µM (inactive) | GI50 (PC-3): > 100 µM (inactive) | GI50 (RPMI-8226): > 100 µM (inactive) | GI50 (RXF 393): > 100 µM (inactive) | GI50 (SF-268): > 100 µM (inactive) | GI50 (SF-295): > 100 µM (inactive) | GI50 (SF-539): > 100 µM (inactive) | GI50 (SK-MEL-28): > 100 µM (inactive) | GI50 (SK-MEL-2): > 100 µM (inactive) | GI50 (SK-MEL-5): > 100 µM (inactive) | GI50 (SK-OV-3): > 100 µM (inactive) | GI50 (SN12C): > 100 µM (inactive) | GI50 (SNB-19): > 100 µM (inactive) | GI50 (SNB-75): 12.5 µM (inactive) | GI50 (SR): > 100 µM (inactive) | GI50 (SW-620): > 100 µM (inactive) | GI50 (T47D): > 100 µM (inactive) | GI50 (TK-10): > 100 µM (inactive) | GI50 (U-251): > 100 µM (inactive) | GI50 (UACC-257): > 100 µM (inactive) | GI50 (UACC-62): > 100 µM (inactive) | GI50 (UO-31): > 100 µM (inactive)

CN1N=C(c2ccncc2)OC1c1ccccc1F (stereo not given)
GI50 (786-0): > 100 µM (inactive) | GI50 (A498): > 100 µM (inactive) | GI50 (A549): > 100 µM (inactive) | GI50 (ACHN): > 100 µM (inactive) | GI50 (CCRF-CEM): > 100 µM (inactive) | GI50 (COLO 205): > 100 µM (inactive) | GI50 (DU-145): > 100 µM (inactive) | GI50 (EKVX): > 100 µM (inactive) | GI50 (HCC 2998): > 100 µM (inactive) | GI50 (HCT-116): > 100 µM (inactive) | GI50 (HCT-15): > 100 µM | GI50 (HL-60): > 100 µM (inactive) | GI50 (HOP-62): > 100 µM (inactive) | GI50 (HOP-92): > 100 µM (inactive) | GI50 (HT-29): > 100 µM (inactive) | GI50 (Hs-578T): > 100 µM (inactive) | GI50 (IGROV-1): > 100 µM (inactive) | GI50 (K562): > 100 µM (inactive) | GI50 (KM12): > 100 µM (inactive) | GI50 (LOX IMVI): > 100 µM (inactive) | GI50 (M14): > 100 µM (inactive) | GI50 (MDA-MB-231): > 100 µM (inactive) | GI50 (MDA-MB-435): > 100 µM (inactive) | GI50 (MDA-N): > 100 µM (inactive) | GI50 (MOLT-4): > 100 µM (inactive) | GI50 (NCI-H226): 73.1 µM (inactive) | GI50 (NCI-H23): > 100 µM (inactive) | GI50 (NCI-H460): > 100 µM (inactive) | GI50 (NCI-H522): > 100 µM (inactive) | GI50 (NCI/ADR-RES): > 100 µM (inactive) | GI50 (OVCAR-3): > 100 µM (inactive) | GI50 (OVCAR-4): > 100 µM (inactive) | GI50 (OVCAR-5): > 100 µM (inactive) | GI50 (OVCAR-8): > 100 µM (inactive) | GI50 (PC-3): > 100 µM (inactive) | GI50 (RPMI-8226): > 100 µM (inactive) | GI50 (RXF 393): > 100 µM (inactive) | GI50 (SF-268): > 100 µM (inactive) | GI50 (SF-295): > 100 µM (inactive) | GI50 (SF-539): > 100 µM (inactive) | GI50 (SK-MEL-28): > 100 µM (inactive) | GI50 (SK-MEL-2): > 100 µM (inactive) | GI50 (SK-MEL-5): > 100 µM (inactive) | GI50 (SK-OV-3): > 100 µM (inactive) | GI50 (SN12C): > 100 µM (inactive) | GI50 (SNB-19): > 100 µM (inactive) | GI50 (SW-620): > 100 µM (inactive) | GI50 (T47D): 51.8 µM (inactive) | GI50 (TK-10): > 100 µM (inactive) | GI50 (U-251): > 100 µM (inactive) | GI50 (UACC-62): > 100 µM (inactive) | GI50 (UO-31): > 100 µM (inactive)

O=C1CCC[C@H]2O[C@@H](COCc3ccccc3)C[C@@H]12
GI50 (786-0): > 100 µM (inactive) | GI50 (A498): > 100 µM (inactive) | GI50 (A549): > 100 µM (inactive) | GI50 (ACHN): > 100 µM (inactive) | GI50 (CAKI-1): > 100 µM (inactive) | GI50 (CCRF-CEM): > 100 µM (inactive) | GI50 (COLO 205): > 100 µM (inactive) | GI50 (DU-145): > 100 µM (inactive) | GI50 (HCT-116): > 100 µM (inactive) | GI50 (HCT-15): > 100 µM | GI50 (HL-60): > 100 µM (inactive) | GI50 (HOP-62): > 100 µM (inactive) | GI50 (HOP-92): > 100 µM (inactive) | GI50 (HT-29): > 100 µM (inactive) | GI50 (Hs-578T): > 100 µM (inactive) | GI50 (K562): > 100 µM (inactive) | GI50 (KM12): > 100 µM (inactive) | GI50 (M14): > 100 µM (inactive) | GI50 (MCF7): > 100 µM (inactive) | GI50 (MDA-MB-231): > 100 µM (inactive) | GI50 (MDA-MB-435): > 100 µM (inactive) | GI50 (MDA-N): > 100 µM (inactive) | GI50 (MOLT-4): > 100 µM (inactive) | GI50 (NCI-H226): > 100 µM (inactive) | GI50 (NCI-H23): > 100 µM (inactive) | GI50 (NCI-H460): > 100 µM (inactive) | GI50 (NCI/ADR-RES): > 100 µM (inactive) | GI50 (OVCAR-3): > 100 µM (inactive) | GI50 (OVCAR-4): > 100 µM (inactive) | GI50 (OVCAR-5): > 100 µM (inactive) | GI50 (OVCAR-8): > 100 µM (inactive) | GI50 (PC-3): > 100 µM (inactive) | GI50 (RPMI-8226): > 100 µM (inactive) | GI50 (SF-268): > 100 µM (inactive) | GI50 (SF-295): > 100 µM (inactive) | GI50 (SF-539): > 100 µM (inactive) | GI50 (SK-MEL-28): > 100 µM (inactive) | GI50 (SK-MEL-2): > 100 µM (inactive) | GI50 (SK-MEL-5): > 100 µM (inactive) | GI50 (SK-OV-3): > 100 µM (inactive) | GI50 (SN12C): > 100 µM (inactive) | GI50 (SNB-19): > 100 µM (inactive) | GI50 (SNB-75): > 100 µM (inactive) | GI50 (SR): > 100 µM (inactive) | GI50 (SW-620): > 100 µM (inactive) | GI50 (T47D): > 100 µM (inactive) | GI50 (TK-10): > 100 µM (inactive) | GI50 (U-251): > 100 µM (inactive) | GI50 (UACC-257): > 100 µM (inactive) | GI50 (UACC-62): > 100 µM (inactive) | GI50 (UO-31): > 100 µM (inactive)
